Measurements as given in article PMC11476342 (Cancers, 2024).
Values joined by “and” are separate entries in the source; they are usually repeats but may differ in a detail not shown here. Equal values may be shown once. Read-outs that look alike come from different tables or passages of the source.

Tests used:
T24 LTT = experiment: MTT cell viability assay; assay type: cell-based, human
Description: (§1) The cell viability for determination of IC50 values and synergism studies was analyzed by MTT assay as previously described. […] For preincubation experiments, 1600 c/w (cells per well) for J82 and 1200 c/w for J82 cisR were used. After the incubation time, 25 µL MTT (3-(4,5-dimethylthiazol-2-yl)-2,5-diphenyltetrazolium bromide, Serva, Heidelberg, Germany) solution (5 mg/mL in phosphate-buffered saline) was added. The formazan was dissolved in 75 µL DMSO, and the absorption was measured at 540 nm and 690 nm with a microplate reader (ThermoFisher Multiskan, Thermo Scientific, Wesel, Germany).

J82 [1] = experiment: MTT cell viability assay; assay type: cell-based, human
Description: as §1

T24 = experiment: MTT cell viability assay; assay type: cell-based, human
Description: as §1

J82 cisR [2] = experiment: MTT cell viability assay; assay type: cell-based, human
Description: as §1

HEK293 = experiment: MTT cell viability assay, non-cancer cell line; assay type: cell-based, human; conditions: for reduction of cell viability: entinostat and/or JQ1 in the absence of cisplatin (Figure 15b,c)
Description: as §1

HBLAK = experiment: MTT cell viability assay, non-cancer cell line; assay type: cell-based, human; conditions: for reduction of cell viability: entinostat and/or JQ1 in the absence of cisplatin (Figure 15a)
Description: as §1

J82 cisR [3] = experiment: RT-qPCR gene expression; assay type: cell-based, human; conditions: 48 h; ENT 0.316 µM; JQ1 0.1 µM; ENT + JQ1 0.316 + 0.1 µM
Description: (§2) RNA was isolated using the RNeasy Mini Kit (Qiagen, Hilden, Germany). Subsequently, the RNA was transcribed into cDNA using the High-Capacity cDNA Reverse Transcription Kit (Thermo Scientific, Wesel, Germany). For an RT-PCR, GoTaq qPCR Master Mix (Promega, Fitchburg, WI, USA) and a CFX96 Real-Time System (BIO-RAD, Hercules, CA, USA) were used. The relative changes in gene expression were normalized to the control genes GUSB (beta-glucuronidase), TBP (TATA binding protein), and HPRT1 (hypoxanthine–guanine phosphoribosyltransferase) by Vandesompele method [54].

J82 [4] = experiment: RT-qPCR gene expression; assay type: cell-based, human; conditions: 48 h; ENT 0.316 µM; JQ1 1 µM; ENT + JQ1 0.316 + 1 µM
Description: as §2

[5] = cited from earlier work
[6] = 72 h co-incubation with 0.316 µM ENT
[7] = MTT, 72 h, compound alone, listed as cisplatin, read-out: IC50 ± SD
[8] = MTT, 72 h, compound alone, read-out: IC50 ± SD
[9] = read-out: Cisplatin IC50 ± SD, control: untreated 48 h, then cisplatin 72 h
[10] = read-out: Cisplatin IC50 ± SD, control: untreated 48 h, then cisplatin 72 h, listed as cisplatin
[11] = read-out: Cisplatin IC50 ± SD, control, then cisplatin 72 h
[12] = Homo sapiens, MTT, 72 h, compound alone, read-out: IC50 ± SD
[13] = 48 h preincubation with the other inhibitor (ENT after 1 µM JQ1; JQ1 after 0.316 µM ENT), then another 72 h
[14] = 72 h co-incubation with the other epigenetic inhibitor: ENT with 1 µM JQ1, JQ1 with 0.316 µM ENT
[15] = Homo sapiens, J82, 72 h, MTT, 72 h, compound alone, read-out: IC50 ± SD
[16] = Homo sapiens, J82, control of the 48 h preincubation scheme, compound 72 h, read-out: IC50 ± SD
[17] = Homo sapiens, T-24, MTT, 72 h, compound alone, read-out: IC50 ± SD
[18] = 48 h preincubation with the other inhibitor (ENT after 0.1 µM JQ1; JQ1 after 0.316 µM ENT), then another 72 h
[19] = 72 h co-incubation with the other epigenetic inhibitor: ENT with 0.1 µM JQ1, JQ1 with 0.316 µM ENT
[20] = Homo sapiens, 72 h, MTT, 72 h, compound alone, read-out: IC50 ± SD
[21] = Homo sapiens, control of the 48 h preincubation scheme, compound 72 h, read-out: IC50 ± SD
[22] = Homo sapiens, HEK293, MTT, 72 h, compound alone, read-out: IC50 ± SD

N.N.[Cl][Pt][Cl] [Cisplatin, cisplatin]
SF (T24 LTT; [6]): 1.71 | SF (T24 LTT; 72 h co-incubation with 0.316 µM ENT + 0.075 µM JQ1): 1.55 | IC50 (T24 LTT; [7]): 65.3 ± 4.17 µM | IC50 (T24 LTT; [8]): 72.2 ± 3.57 µM | cisplatin-resistance factor (T24 LTT; T24 LTT vs T24): 24 | IC50 (T24 LTT; [9]): 75 ± 2.85 µM | IC50 (T24 LTT; [10]): 58.7 ± 2.6 µM | SF (J82 [1]; [6]): 1.74 | SF (J82 [1]; 72 h co-incubation with 0.316 µM ENT + 1 µM JQ1): 3.05 | SF (J82 [1]; 72 h co-incubation with 1 µM JQ1): 1.90 | IC50 (J82 [1]; [7]): 2.49 ± 0.12 µM | IC50 (J82 [1]; [8]): 1.87 ± 0.06 µM | IC50 (J82 [1]; [9]): 2.16 µM and 3.02 µM | IC50 (J82 [1]; [10]): 2.98 ± 0.21 µM | SF (T24; 72 h co-incubation with 0.3 µM JQ1): 1.88 | SF (T24; [6]): 1.02 | SF (T24; 72 h co-incubation with 0.316 µM ENT + 0.3 µM JQ1): 1.54 | IC50 (T24; [7]): 1.97 ± 0.06 µM | IC50 (T24; [8]): 2.99 ± 0.12 µM | IC50 (T24; [9]): 4.15 ± 0.12 µM | IC50 (T24; [10]): 3.23 ± 0.1 µM | SF (J82 cisR [2]; 72 h co-incubation with 0.1 µM JQ1): 0.98 | SF (J82 cisR [2]; [6]): 1.60 | SF (J82 cisR [2]; 72 h co-incubation with 0.316 µM ENT + 0.1 µM JQ1): 1.56 | cisplatin-resistance factor (J82 cisR [2]; J82 cisR vs J82): 3.8 | IC50 (J82 cisR [2]; [7]): 6.17 ± 0.23 µM | IC50 (J82 cisR [2]; [8]): 7.16 ± 0.24 µM | IC50 (J82 cisR [2]; [9]): 8.49 µM and 7.8 µM | IC50 (J82 cisR [2]; [10]): 7.64 ± 0.38 µM | IC50 (HEK293; [8]): 3.36 ± 0.09 µM | IC50 (HEK293; [11]): 6.26 ± 0.21 µM | IC50 (HBLAK; [8]): 1.71 ± 0.09 µM | IC50 (HBLAK; [11]): 3.38 ± 0.18 µM

Nc1ccccc1NC(=O)c1ccc(CNC(=O)OCc2cccnc2)cc1 [Entinostat, entinostat]
Bim gene expression, decadic logarithm of normalized expression (J82 cisR [3]): -0.110 | FOXO1 gene expression, decadic logarithm of normalized expression (J82 cisR [3]): 0.087 | FOXO3a gene expression, decadic logarithm of normalized expression (J82 cisR [3]): -0.030 | p21 gene expression, decadic logarithm of normalized expression (J82 cisR [3]): 0.049 | p53 gene expression, decadic logarithm of normalized expression (J82 cisR [3]): -0.202 | survivin gene expression, decadic logarithm of normalized expression (J82 cisR [3]): -0.100 | IC50 (T24 LTT; [12]): 1.38 ± 0.1 µM | SF (J82 [1]; [13]): 1.44 | SF (J82 [1]; [14]): 1.68 | IC50 (J82 [1]; [15]): 12.3 ± 1.08 µM | IC50 (J82 [1]; [16]): 9.59 ± 0.81 µM | IC50 (J82 [1]; [8]): 10.4 ± 0.89 µM | IC50 (T24; [17]): 5.68 ± 0.51 µM | SF (J82 cisR [2]; [18]): 1.45 | SF (J82 cisR [2]; [19]): 1.97 | IC50 (J82 cisR [2]; [20]): 10.4 ± 0.94 µM | IC50 (J82 cisR [2]; [21]): 9.38 ± 0.89 µM | IC50 (J82 cisR [2]; [8]): 7.6 ± 0.59 µM | Bim gene expression, decadic logarithm of normalized expression (J82 [4]): -0.015 | FOXO1 gene expression, decadic logarithm of normalized expression (J82 [4]): -0.054 | FOXO3a gene expression, decadic logarithm of normalized expression (J82 [4]): -0.125 | p53 gene expression, decadic logarithm of normalized expression (J82 [4]): -0.125 | survivin gene expression, decadic logarithm of normalized expression (J82 [4]): -0.149 | IC50 (HEK293; [22]): 4.47 ± 0.77 µM | reduction of cell viability (HEK293): up to 20% | IC50 (HBLAK; [12]): 1.45 ± 0.18 µM | reduction of cell viability (HBLAK): 60–65%

Cc1sc2c(c1C)C(c1ccc(Cl)cc1)=NC(CC(=O)OC(C)(C)C)c1nnc(C)n1-2 (centres unmarked) [JQ1]
Bim gene expression, decadic logarithm of normalized expression (J82 cisR [3]): 0.534 | FOXO1 gene expression, decadic logarithm of normalized expression (J82 cisR [3]): 0.410 | FOXO3a gene expression, decadic logarithm of normalized expression (J82 cisR [3]): 0.438 | p21 gene expression, decadic logarithm of normalized expression (J82 cisR [3]): 0.581 | p53 gene expression, decadic logarithm of normalized expression (J82 cisR [3]): 0.347 | survivin gene expression, decadic logarithm of normalized expression (J82 cisR [3]): 0.435 | bioavailability ([5]; OTX015: oral, in contrast to JQ1): limited | half-life ([5]; in vivo, OTX015 in contrast to JQ1): very short | IC50 (T24 LTT; [12]): 0.6 ± 0.08 µM | fold lower IC50 in T24 LTT than T24 (T24 LTT; MTT, 72 h): 4 fold | SF (J82 [1]; [13]): 1.28 | SF (J82 [1]; [14]): 0.84 | IC50 (J82 [1]; [15]): 21.5 ± 4.05 µM | IC50 (J82 [1]; [16]): 21.6 ± 4.99 µM | IC50 (J82 [1]; [8]): 18.8 ± 1.55 µM | IC50 (T24; [17]): 2.29 ± 0.42 µM | SF (J82 cisR [2]; [18]): 1.21 | SF (J82 cisR [2]; [19]): 1.71 | IC50 (J82 cisR [2]; [20]): 2.64 ± 0.52 µM | IC50 (J82 cisR [2]; [21]): 2.41 ± 0.51 µM | fold lower sensitivity of J82 than J82 cisR (J82 cisR [2]; MTT, 72 h): 8.4 fold | IC50 (J82 cisR [2]; [8]): 2.22 ± 0.41 µM | Bim gene expression, decadic logarithm of normalized expression (J82 [4]): 0.283 | FOXO1 gene expression, decadic logarithm of normalized expression (J82 [4]): 0.260 | FOXO3a gene expression, decadic logarithm of normalized expression (J82 [4]): 0.128 | p21 gene expression, decadic logarithm of normalized expression (J82 [4]): 0.654 | p53 gene expression, decadic logarithm of normalized expression (J82 [4]): -0.097 | survivin gene expression, decadic logarithm of normalized expression (J82 [4]): -0.002 | IC50 (HEK293; [22]): 1.41 ± 0.26 µM | reduction of cell viability (HEK293): up to 20% | IC50 (HBLAK; Homo sapiens, 72 h, read-out: IC50 ± SD): 2.37 ± 0.41 µM | reduction of cell viability (HBLAK): 60–65%
